ChEMBL document CHEMBL4507262, “Data for DCP probe A-1596586” (2021)
Active and inactive are the calls of the source. The calls are words filed in the database; no cut-off is given here.

How the values were obtained:
[1] = biological target: Tyrosine-protein kinase HCK (Homo sapiens) (UniProt P08631); details: Compound concentration 1000.0 nM
[2] = biological target: Serine/threonine-protein kinase/endoribonuclease IRE1 (Homo sapiens) (UniProt O75460); details: Compound concentration 1000.0 nM
[3] = biological target: Casein kinase II subunit alpha (Homo sapiens) (UniProt P68400); details: Compound concentration 1000.0 nM
[4] = biological target: Vasopressin V1a receptor (Homo sapiens) (UniProt P37288); experiment: V1 a (h) Eurofins-Cerep binding assay; design: ligand concentration 0.3 nM; details: filed as agonist, Compound concentration 10.0 uM
[5] = biological target: Leukocyte tyrosine kinase receptor (Homo sapiens) (UniProt P29376); details: Compound concentration 1000.0 nM
[6] = biological target: Insulin receptor-related protein (Homo sapiens) (UniProt P14616); details: Compound concentration 1000.0 nM
[7] = biological target: Serine/threonine-protein kinase MAK (Homo sapiens) (UniProt P20794); details: Compound concentration 1000.0 nM
[8] = test system: Leucine-rich repeat serine/threonine-protein kinase 2 (Homo sapiens), Q5S007 [G2019S]; details: Compound concentration 1000.0 nM
[9] = biological target: Serine/threonine-protein kinase MARK2 (Homo sapiens) (UniProt Q7KZI7); details: Compound concentration 1000.0 nM
[10] = biological target: Cystic fibrosis transmembrane conductance regulator (Homo sapiens, UniProt P13569); experiment: CSE-HRP surface expression (Cell surface expression-horseradish peroxidase) assay
[11] = biological target: Serine/threonine-protein kinase Nek1 (Homo sapiens) (UniProt Q96PY6); details: Compound concentration 1000.0 nM
[12] = biological target: Kappa-type opioid receptor (Homo sapiens) (UniProt P41145); experiment: kappa (h) (KOP) Eurofins-Cerep binding assay; design: ligand concentration 0.5 nM; details: filed as agonist, Compound concentration 10.0 uM
[13] = biological target: T1, Alpha-2A adrenergic receptor (Homo sapiens) (UniProt P08913); experiment: Alpha2A (h) Eurofins-Cerep binding assay; design: ligand concentration 1 nM; details: filed as antagonist, Compound concentration 10.0 uM
T1 sequence (whole entry): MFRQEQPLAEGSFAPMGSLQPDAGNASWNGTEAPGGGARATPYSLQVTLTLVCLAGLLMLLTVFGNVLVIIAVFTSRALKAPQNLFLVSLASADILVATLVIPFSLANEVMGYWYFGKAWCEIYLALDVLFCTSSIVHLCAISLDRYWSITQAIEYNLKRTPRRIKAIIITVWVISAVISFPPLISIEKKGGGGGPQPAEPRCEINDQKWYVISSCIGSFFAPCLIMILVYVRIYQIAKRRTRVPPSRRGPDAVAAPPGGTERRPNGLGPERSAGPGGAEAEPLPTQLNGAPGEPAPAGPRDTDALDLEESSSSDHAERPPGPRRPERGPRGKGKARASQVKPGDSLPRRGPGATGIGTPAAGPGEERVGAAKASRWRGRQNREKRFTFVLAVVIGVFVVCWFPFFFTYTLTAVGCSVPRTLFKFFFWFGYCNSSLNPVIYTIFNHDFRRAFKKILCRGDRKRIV

[14] = biological target: Tyrosine-protein kinase Fes/Fps (Homo sapiens) (UniProt P07332); details: Compound concentration 1000.0 nM
[15] = biological target: Receptor-interacting serine/threonine-protein kinase 1 (Homo sapiens) (UniProt Q13546); details: Compound concentration 1000.0 nM
[16] = biological target: Mitogen-activated protein kinase kinase kinase kinase 1 (Homo sapiens) (UniProt Q92918); details: Compound concentration 1000.0 nM
[17] = biological target: Peroxisome proliferator-activated receptor gamma (Homo sapiens) (UniProt P37231); experiment: PPARgamma (h) Eurofins-Cerep binding assay; design: ligand concentration 5 nM; details: filed as agonist, Compound concentration 10.0 uM
[18] = biological target: Insulin receptor (Homo sapiens) (UniProt P06213); details: Compound concentration 1000.0 nM
[19] = biological target: T2, 5-hydroxytryptamine receptor 3A (Homo sapiens) (UniProt P46098); experiment: 5-HT3 (h) Eurofins-Cerep binding assay; design: ligand concentration 0.5 nM; details: filed as antagonist, Compound concentration 10.0 uM
T2 sequence (whole entry): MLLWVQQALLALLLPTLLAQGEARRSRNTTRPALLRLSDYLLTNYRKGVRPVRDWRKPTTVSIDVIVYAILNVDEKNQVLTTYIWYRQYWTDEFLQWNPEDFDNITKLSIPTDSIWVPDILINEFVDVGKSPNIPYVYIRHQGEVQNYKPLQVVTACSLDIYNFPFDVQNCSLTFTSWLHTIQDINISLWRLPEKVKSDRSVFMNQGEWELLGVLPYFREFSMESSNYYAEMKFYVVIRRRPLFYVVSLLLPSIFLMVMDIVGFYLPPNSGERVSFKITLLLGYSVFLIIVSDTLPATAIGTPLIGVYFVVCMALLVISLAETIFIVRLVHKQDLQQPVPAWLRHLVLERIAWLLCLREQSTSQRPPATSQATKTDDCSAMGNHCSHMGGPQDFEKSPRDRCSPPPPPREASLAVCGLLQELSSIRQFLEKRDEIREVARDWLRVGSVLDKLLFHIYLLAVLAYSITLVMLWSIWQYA

[20] = biological target: Fibroblast growth factor receptor 4 (Homo sapiens) (UniProt P22455); details: Compound concentration 1000.0 nM
[21] = biological target: Calcium/calmodulin-dependent protein kinase type 1B (Homo sapiens) (UniProt Q6P2M8); details: Compound concentration 1000.0 nM
[22] = test system: Tyrosine-protein kinase ABL1 (Homo sapiens), P00519 [F317I]; details: Compound concentration 1000.0 nM
[23] = biological target: 5-hydroxytryptamine receptor 1A (Homo sapiens) (UniProt P08908); experiment: 5-HT1A (h) Eurofins-Cerep binding assay; design: ligand concentration 0.5 nM; details: filed as agonist, Compound concentration 10.0 uM
[24] = biological target: Serine/threonine-protein kinase ICK (Homo sapiens) (UniProt Q9UPZ9); details: Compound concentration 1000.0 nM
[25] = biological target: Endothelin-1 receptor (Homo sapiens) (UniProt P25101); experiment: ETA (h) Eurofins-Cerep binding assay; design: ligand concentration 0.03 nM; details: filed as agonist, Compound concentration 10.0 uM
[26] = biological target: Ribosomal protein S6 kinase alpha-4 (Homo sapiens) (UniProt O75676); details: Compound concentration 1000.0 nM
[27] = biological target: Serine/threonine-protein kinase 25 (Homo sapiens) (UniProt O00506); details: Compound concentration 1000.0 nM
[28] = biological target: MAP kinase-interacting serine/threonine-protein kinase 2 (Homo sapiens) (UniProt Q9HBH9); details: Compound concentration 1000.0 nM
[29] = biological target: Focal adhesion kinase 1 (Homo sapiens) (UniProt Q05397); details: Compound concentration 1000.0 nM
[30] = biological target: Homeodomain-interacting protein kinase 4 (Homo sapiens) (UniProt Q8NE63); details: Compound concentration 1000.0 nM
[31] = biological target: T1, Alpha-2A adrenergic receptor (Homo sapiens); details: Compound concentration 10.0 uM
[32] = biological target: Serine/threonine-protein kinase D2 (Homo sapiens) (UniProt Q9BZL6); details: Compound concentration 1000.0 nM

Sequence of 5-hydroxytryptamine receptor 1A (Homo sapiens) (P08908 whole entry): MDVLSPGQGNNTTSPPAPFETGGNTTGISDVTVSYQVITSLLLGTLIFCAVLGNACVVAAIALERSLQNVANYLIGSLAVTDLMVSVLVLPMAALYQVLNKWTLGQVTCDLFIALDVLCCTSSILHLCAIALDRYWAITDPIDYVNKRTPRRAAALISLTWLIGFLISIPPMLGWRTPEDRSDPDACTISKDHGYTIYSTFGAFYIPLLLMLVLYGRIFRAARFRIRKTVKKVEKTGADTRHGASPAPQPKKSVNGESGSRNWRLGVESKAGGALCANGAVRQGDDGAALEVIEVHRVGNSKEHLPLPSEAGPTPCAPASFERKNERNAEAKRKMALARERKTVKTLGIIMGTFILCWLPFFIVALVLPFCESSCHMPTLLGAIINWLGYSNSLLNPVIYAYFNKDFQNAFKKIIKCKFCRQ
Sequence of Tyrosine-protein kinase Fes/Fps (Homo sapiens) (P07332 whole entry): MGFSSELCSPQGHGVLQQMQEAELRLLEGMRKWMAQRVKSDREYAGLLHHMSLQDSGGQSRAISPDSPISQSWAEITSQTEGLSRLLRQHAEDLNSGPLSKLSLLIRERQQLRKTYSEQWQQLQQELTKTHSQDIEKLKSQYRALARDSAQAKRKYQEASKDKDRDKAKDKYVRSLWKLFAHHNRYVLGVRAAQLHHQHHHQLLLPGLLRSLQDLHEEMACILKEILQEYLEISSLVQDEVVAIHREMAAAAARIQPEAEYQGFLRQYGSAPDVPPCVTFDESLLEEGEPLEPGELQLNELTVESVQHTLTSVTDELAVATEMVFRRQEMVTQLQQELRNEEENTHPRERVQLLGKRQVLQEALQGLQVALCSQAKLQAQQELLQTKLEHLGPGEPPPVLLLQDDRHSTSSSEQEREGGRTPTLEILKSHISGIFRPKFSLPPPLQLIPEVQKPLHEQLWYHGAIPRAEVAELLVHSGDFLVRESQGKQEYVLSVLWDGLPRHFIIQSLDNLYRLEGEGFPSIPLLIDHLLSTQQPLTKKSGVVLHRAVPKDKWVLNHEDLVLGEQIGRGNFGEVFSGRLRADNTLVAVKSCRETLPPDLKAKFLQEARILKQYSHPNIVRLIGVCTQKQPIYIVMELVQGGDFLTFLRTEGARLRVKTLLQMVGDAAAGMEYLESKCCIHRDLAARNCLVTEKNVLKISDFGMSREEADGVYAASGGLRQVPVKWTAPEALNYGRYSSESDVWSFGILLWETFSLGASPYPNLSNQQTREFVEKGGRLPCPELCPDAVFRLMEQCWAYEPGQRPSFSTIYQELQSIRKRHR
Sequence of MAP kinase-interacting serine/threonine-protein kinase 2 (Homo sapiens) (Q9HBH9 whole entry, looked up): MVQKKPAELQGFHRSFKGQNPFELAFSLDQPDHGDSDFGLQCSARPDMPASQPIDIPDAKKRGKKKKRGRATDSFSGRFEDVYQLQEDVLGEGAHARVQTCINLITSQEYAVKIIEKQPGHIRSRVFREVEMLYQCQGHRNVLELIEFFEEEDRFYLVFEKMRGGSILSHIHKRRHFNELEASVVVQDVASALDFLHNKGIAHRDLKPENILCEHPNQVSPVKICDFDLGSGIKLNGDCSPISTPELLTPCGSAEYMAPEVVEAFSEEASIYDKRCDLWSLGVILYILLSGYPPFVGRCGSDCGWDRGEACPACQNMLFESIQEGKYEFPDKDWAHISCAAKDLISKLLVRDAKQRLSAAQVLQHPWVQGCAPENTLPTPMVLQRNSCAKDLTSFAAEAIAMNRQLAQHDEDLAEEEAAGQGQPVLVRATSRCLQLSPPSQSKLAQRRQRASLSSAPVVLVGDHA
Sequence of Cystic fibrosis transmembrane conductance regulator (P13569 whole entry): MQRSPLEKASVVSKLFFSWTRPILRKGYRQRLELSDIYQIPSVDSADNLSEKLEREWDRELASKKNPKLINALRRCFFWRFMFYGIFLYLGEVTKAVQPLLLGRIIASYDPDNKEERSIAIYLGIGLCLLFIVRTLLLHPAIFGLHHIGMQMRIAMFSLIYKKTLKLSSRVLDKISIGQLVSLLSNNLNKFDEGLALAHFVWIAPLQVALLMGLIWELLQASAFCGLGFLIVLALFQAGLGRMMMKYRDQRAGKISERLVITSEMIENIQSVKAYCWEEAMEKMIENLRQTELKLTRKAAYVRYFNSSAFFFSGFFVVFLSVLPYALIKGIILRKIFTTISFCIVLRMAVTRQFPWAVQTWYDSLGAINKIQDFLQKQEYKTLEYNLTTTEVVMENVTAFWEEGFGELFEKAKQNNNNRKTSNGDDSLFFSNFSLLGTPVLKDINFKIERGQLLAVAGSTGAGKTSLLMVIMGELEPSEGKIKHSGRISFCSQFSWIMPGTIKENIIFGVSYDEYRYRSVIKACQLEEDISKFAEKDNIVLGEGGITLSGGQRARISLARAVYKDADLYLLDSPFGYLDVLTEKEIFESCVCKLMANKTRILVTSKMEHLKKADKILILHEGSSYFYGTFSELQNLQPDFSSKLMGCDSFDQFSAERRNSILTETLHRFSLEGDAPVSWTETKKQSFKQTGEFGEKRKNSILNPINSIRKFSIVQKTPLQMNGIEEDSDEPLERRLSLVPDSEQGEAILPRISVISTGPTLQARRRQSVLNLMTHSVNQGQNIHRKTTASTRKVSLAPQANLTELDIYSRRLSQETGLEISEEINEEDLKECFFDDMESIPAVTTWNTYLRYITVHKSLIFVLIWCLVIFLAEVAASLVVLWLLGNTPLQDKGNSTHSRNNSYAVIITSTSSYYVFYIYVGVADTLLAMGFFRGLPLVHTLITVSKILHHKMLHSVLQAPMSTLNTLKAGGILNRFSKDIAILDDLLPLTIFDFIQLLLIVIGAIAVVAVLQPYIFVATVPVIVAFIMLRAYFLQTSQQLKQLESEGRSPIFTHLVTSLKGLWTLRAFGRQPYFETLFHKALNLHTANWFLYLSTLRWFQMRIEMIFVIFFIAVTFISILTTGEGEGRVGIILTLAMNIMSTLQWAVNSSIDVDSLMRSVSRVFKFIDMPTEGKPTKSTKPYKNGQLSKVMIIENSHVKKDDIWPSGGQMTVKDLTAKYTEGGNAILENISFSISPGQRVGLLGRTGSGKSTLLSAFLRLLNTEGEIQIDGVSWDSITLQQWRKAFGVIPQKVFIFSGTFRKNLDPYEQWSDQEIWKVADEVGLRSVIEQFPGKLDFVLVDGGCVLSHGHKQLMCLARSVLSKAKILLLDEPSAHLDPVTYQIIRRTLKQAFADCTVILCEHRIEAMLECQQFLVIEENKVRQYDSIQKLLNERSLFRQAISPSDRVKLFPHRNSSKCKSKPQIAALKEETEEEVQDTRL
Sequence of Serine/threonine-protein kinase MAK (Homo sapiens) (P20794 whole entry): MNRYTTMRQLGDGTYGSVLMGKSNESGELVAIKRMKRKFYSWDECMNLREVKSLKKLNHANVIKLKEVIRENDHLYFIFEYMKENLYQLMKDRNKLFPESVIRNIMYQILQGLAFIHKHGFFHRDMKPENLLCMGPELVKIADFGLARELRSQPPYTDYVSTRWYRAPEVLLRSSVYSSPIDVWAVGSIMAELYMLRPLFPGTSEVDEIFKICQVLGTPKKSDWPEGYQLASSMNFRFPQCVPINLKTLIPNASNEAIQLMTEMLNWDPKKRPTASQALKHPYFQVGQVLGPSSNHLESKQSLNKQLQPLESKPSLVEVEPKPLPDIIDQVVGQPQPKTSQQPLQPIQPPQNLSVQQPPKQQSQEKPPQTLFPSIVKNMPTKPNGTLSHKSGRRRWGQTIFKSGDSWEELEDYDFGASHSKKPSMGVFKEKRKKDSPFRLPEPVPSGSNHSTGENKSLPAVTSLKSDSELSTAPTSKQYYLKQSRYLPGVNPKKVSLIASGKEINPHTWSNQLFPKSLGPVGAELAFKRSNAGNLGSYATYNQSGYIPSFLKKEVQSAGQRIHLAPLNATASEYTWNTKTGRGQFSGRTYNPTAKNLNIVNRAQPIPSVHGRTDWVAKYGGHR
Sequence of Endothelin-1 receptor (Homo sapiens) (P25101 whole entry): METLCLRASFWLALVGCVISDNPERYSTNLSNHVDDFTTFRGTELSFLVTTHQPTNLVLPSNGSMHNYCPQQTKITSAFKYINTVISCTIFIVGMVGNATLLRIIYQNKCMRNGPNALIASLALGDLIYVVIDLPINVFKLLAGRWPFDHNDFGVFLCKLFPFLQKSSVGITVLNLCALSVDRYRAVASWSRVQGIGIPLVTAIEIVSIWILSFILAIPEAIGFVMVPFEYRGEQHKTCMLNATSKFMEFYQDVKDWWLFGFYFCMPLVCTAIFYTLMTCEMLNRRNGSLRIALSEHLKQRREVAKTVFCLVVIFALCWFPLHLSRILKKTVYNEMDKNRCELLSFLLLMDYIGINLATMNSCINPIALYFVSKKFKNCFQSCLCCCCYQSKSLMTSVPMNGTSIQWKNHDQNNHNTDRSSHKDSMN
Sequence of Casein kinase II subunit alpha (Homo sapiens) (P68400 whole entry, looked up): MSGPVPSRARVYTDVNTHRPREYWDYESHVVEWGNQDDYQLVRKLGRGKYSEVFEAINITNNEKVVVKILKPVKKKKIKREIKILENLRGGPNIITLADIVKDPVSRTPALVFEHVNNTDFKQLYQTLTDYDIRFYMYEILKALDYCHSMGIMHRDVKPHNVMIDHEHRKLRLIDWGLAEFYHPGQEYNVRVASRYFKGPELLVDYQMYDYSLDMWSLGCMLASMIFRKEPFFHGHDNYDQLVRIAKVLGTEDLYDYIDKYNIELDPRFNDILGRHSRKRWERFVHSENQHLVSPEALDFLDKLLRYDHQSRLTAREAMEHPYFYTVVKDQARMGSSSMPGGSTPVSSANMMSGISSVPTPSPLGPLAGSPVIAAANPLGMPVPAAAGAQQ
Sequence of Calcium/calmodulin-dependent protein kinase type 1B (Homo sapiens) (Q6P2M8 whole entry): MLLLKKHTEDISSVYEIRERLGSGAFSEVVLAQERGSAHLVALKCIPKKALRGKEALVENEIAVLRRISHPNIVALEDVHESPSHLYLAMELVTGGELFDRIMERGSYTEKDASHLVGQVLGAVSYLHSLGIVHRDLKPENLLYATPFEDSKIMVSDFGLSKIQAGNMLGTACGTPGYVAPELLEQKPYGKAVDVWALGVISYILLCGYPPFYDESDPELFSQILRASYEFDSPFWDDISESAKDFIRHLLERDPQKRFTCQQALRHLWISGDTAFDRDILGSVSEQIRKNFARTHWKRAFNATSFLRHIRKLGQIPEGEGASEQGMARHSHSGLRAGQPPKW

With COc1ccc2c(c1)O[C@@H](c1ccc(OC)c(OC)c1)C[C@H]2NC(=O)C1(c2ccc3c(c2)OC(F)(F)O3)CC1 [A-1596586] as the molecule, how does the residual activity [1] read?
Its residual activity is 88%.

What about the residual activity [2] of the same molecule?
Its residual activity is 100%.

What about the residual activity [3] of the same molecule?
The residual activity was 94%.

And the % Inhibition of Control Specific Binding (Mean n=2) [4]?
The % Inhibition of Control Specific Binding (Mean n=2) was 4.7%.

What about the residual activity [5] of the same molecule?
The residual activity was 100%.

What about the residual activity [6] of the same molecule?
Its residual activity is 100%.

And the residual activity [7]?
The residual activity was 93%.

And the residual activity [8]?
Its residual activity is 90%.

What about the residual activity [9] of the same molecule?
Its residual activity is 92%.

What about the EC50 [10] of the same molecule?
The EC50 was 0.13 µM (active).

And the residual activity [11]?
The residual activity was 100%.

And the % Inhibition of Control Specific Binding (Mean n=2) [12]?
The % Inhibition of Control Specific Binding (Mean n=2) was 42.2%.

What about the % Inhibition of Control Specific Binding (Mean n=2) [13] of the same molecule?
Its % Inhibition of Control Specific Binding (Mean n=2) is 8.7%.

And the residual activity [14]?
The residual activity was 93%.

What about the residual activity [15] of the same molecule?
Its residual activity is 93%.

And the residual activity [16]?
The residual activity was 90%.

And the % Inhibition of Control Specific Binding (Mean n=2) [17]?
Its % Inhibition of Control Specific Binding (Mean n=2) is -5.5%.

And the residual activity [18]?
Its residual activity is 79%.

What about the % Inhibition of Control Specific Binding (Mean n=2) [19] of the same molecule?
Its % Inhibition of Control Specific Binding (Mean n=2) is -3%.

What about the residual activity [20] of the same molecule?
Its residual activity is 90%.

What about the residual activity [21] of the same molecule?
Its residual activity is 100%.

What about the residual activity [22] of the same molecule?
The residual activity was 93%.

And the % Inhibition of Control Specific Binding (Mean n=2) [23]?
Its % Inhibition of Control Specific Binding (Mean n=2) is 19.2%.

What about the residual activity [24] of the same molecule?
Its residual activity is 74%.

And the % Inhibition of Control Specific Binding (Mean n=2) [25]?
Its % Inhibition of Control Specific Binding (Mean n=2) is -6.9%.

And the residual activity [26]?
Its residual activity is 81%.

What about the residual activity [27] of the same molecule?
Its residual activity is 100%.

What about the residual activity [28] of the same molecule?
Its residual activity is 93%.

What about the residual activity [29] of the same molecule?
The residual activity was 94%.

What about the residual activity [30] of the same molecule?
The residual activity was 51%.

What about the inhibition [31] of the same molecule?
The inhibition was 17.6%.

What about the residual activity [32] of the same molecule?
Its residual activity is 100%.

What does the source list for COc1ccc2c(c1)O[C@H](c1ccc(OC)c(OC)c1)C[C@@H]2NC(=O)C1(c2ccc3c(c2)OC(F)(F)O3)CC1 [A-1596584]?
residual activity [1]: 100%; residual activity [2]: 100%; residual activity [3]: 100%; % Inhibition of Control Specific Binding (Mean n=2) [4]: 5.9%; residual activity [5]: 100%; residual activity [6]: 100%; residual activity [7]: 95%; residual activity [8]: 100%; residual activity [9]: 100%; EC50 [10]: 1 µM (not active); residual activity [11]: 100%; % Inhibition of Control Specific Binding (Mean n=2) [12]: 44.7%; % Inhibition of Control Specific Binding (Mean n=2) [13]: 5.1%; residual activity [14]: 97%; residual activity [15]: 100%; residual activity [16]: 98%; % Inhibition of Control Specific Binding (Mean n=2) [17]: 13.7%; residual activity [18]: 82%; % Inhibition of Control Specific Binding (Mean n=2) [19]: 0.8%; residual activity [20]: 100%; residual activity [21]: 100%; residual activity [22]: 100%; % Inhibition of Control Specific Binding (Mean n=2) [23]: 5%; residual activity [24]: 80%; % Inhibition of Control Specific Binding (Mean n=2) [25]: 4%; residual activity [26]: 100%; residual activity [27]: 100%; residual activity [28]: 100%; residual activity [29]: 100%; residual activity [30]: 91%; inhibition [31]: 14.9%; residual activity [32]: 100%
